{"source": "patent US12077503B2", "about": "“Substituted cyclic amides and their use as herbicides” (FMC CORPORATION, priority 2015, dated 2024)", "format_in_all_cases": "in vivo", "key": {"[1]": {"system": "Kochia (Kochia scoparia)", "assay": "Test A preemergence", "conditions": "Bassia scoparia, pre-emergence, 240 h, Preemergence", "in_short": "(§1)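 In a loam soil and sand blend, planted seeds got a preemergence directed soil spray, and young plants at the one- to two-leaf stage, 2–10 cm high, got a postemergence application; ~10 d greenhouse hold; injury rated visually, 0 = none, 100 = complete control.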"}, "[2]": {"system": "ryegrass, Italian (Italian ryegrass, Lolium multiflorum)", "assay": "Test A preemergence", "conditions": "Lolium multiflorum, pre-emergence, 240 h, Preemergence", "in_short": "as §1"}, "[3]": {"system": "barnyardgrass (Echinochloa crus-galli)", "assay": "Test A preemergence", "conditions": "Echinochloa crus-galli, pre-emergence, 240 h, Preemergence", "in_short": "as §1"}, "[4]": {"system": "pigweed (Amaranthus retroflexus)", "assay": "Test A preemergence", "conditions": "Amaranthus retroflexus, pre-emergence, 240 h, Preemergence"}, "[5]": {"system": "giant foxtail (Setaria faberii)", "assay": "Test A preemergence", "conditions": "Setaria faberi, pre-emergence, 240 h, Preemergence", "in_short": "as §1"}, "[6]": {"system": "ragweed (common ragweed, Ambrosia elatior)", "assay": "Test A preemergence", "conditions": "Ambrosia artemisiifolia, pre-emergence, 240 h, Preemergence", "in_short": "as §1"}, "[7]": {"system": "wheat (Triticum aestivum)", "assay": "Test A postemergence", "conditions": "Triticum aestivum, post-emergence, 240 h", "in_short": "as §1"}, "[8]": {"system": "corn (Zea mays)", "assay": "Test A postemergence", "conditions": "Zea mays, post-emergence, 240 h", "in_short": "as §1"}, "[9]": {"system": "Kochia (Kochia scoparia)", "assay": "Test A postemergence", "conditions": "Bassia scoparia, post-emergence, 240 h", "in_short": "as §1"}, "[10]": {"system": "ryegrass, Italian (Italian ryegrass, Lolium multiflorum)", "assay": "Test A postemergence", "conditions": "Lolium multiflorum, post-emergence, 240 h", "in_short": "as §1"}, "[11]": {"system": "barnyardgrass (Echinochloa crus-galli)", "assay": "Test A postemergence", "conditions": "Echinochloa crus-galli, post-emergence, 240 h", "in_short": "as §1"}, "[12]": {"system": "pigweed (Amaranthus retroflexus)", "assay": "Test A postemergence", "conditions": "Amaranthus retroflexus, post-emergence, 240 h", "in_short": "as §1"}, "[13]": {"system": "blackgrass (Alopecurus myosuroides)", "assay": "Test A postemergence", "conditions": "Alopecurus myosuroides, post-emergence, 240 h", "in_short": "as §1"}, "[14]": {"system": "giant foxtail (Setaria faberii)", "assay": "Test A postemergence", "conditions": "Setaria faberi, post-emergence, 240 h", "in_short": "as §1"}, "[15]": {"system": "Galium (catchweed bedstraw, Galium aparine)", "assay": "Test A postemergence", "conditions": "Galium, post-emergence, 240 h", "in_short": "as §1"}, "[16]": {"system": "ragweed (common ragweed, Ambrosia elatior)", "assay": "Test A postemergence", "conditions": "Ambrosia artemisiifolia, post-emergence, 240 h", "in_short": "as §1"}, "[17]": {"system": "sedge, umbrella (small-flower umbrella sedge, Cyperus difformis)", "assay": "Test B flooded paddy test", "conditions": "Cyperus difformis, 250 g ai/ha, Flood; 0 to 100 scale where 0 is no effect and 100 is complete control; read-out: Sedge, Umbrella plant response rating", "in_short": "(§2)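 2-leaf plants; pots flooded 3 cm over soil; cpd added to paddy water; depth held; greenhouse 13–15 d; visual rating vs controls, 0 = no effect, 100 = complete control.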"}, "[18]": {"system": "ducksalad (Heteranthera limosa)", "assay": "Test B flooded paddy test", "conditions": "Heteranthera limosa, 250 g ai/ha, Flood; 0 to 100 scale where 0 is no effect and 100 is complete control; read-out: Ducksalad plant response rating", "in_short": "as §2"}, "[19]": {"system": "rice (Oryra sativa)", "assay": "Test B flooded paddy test", "conditions": "Oryza sativa, 250 g ai/ha, Flood; 0 to 100 scale where 0 is no effect and 100 is complete control; read-out: Rice plant response rating", "in_short": "as §2"}, "[20]": {"system": "barnyardgrass (Echinochloa crus-galli)", "assay": "Test B flooded paddy test", "conditions": "Echinochloa crus-galli, 250 g ai/ha, Flood; 0 to 100 scale where 0 is no effect and 100 is complete control; read-out: Barnyardgrass plant response rating", "in_short": "as §2"}}}
{"smiles": "CSc1ccccc1NC(=O)[C@H]1C(=O)N(C)C[C@@H]1c1ccc(C(F)(F)F)cn1", "note": "[Compound 1051]", "values": [{"measurement": "pest or weed control at 31 g/ha", "setting": "[1]; 31 g ai/ha, 0 to 100 scale where 0 is no effect and 100 is complete control, read-out: Kochia plant response rating", "result": 0, "unit": "%"}, {"measurement": "pest or weed control at 125 g/ha", "setting": "[1]; 125 g ai/ha, visual injury rating after approximately 10 d, read-out: Kochia plant response rating (0 to 100 scale, 0 is no effect, 100 is complete control)", "result": 0, "unit": "%"}, {"measurement": "pest or weed control at 31 g/ha", "setting": "[2]; 31 g ai/ha, 0 to 100 scale where 0 is no effect and 100 is complete control, read-out: Ryegrass, Italian plant response rating", "result": 0, "unit": "%"}, {"measurement": "pest or weed control at 125 g/ha", "setting": "[2]; 125 g ai/ha, visual injury rating after approximately 10 d, read-out: Ryegrass, Italian plant response rating (0 to 100 scale, 0 is no effect, 100 is complete control)", "result": 0, "unit": "%"}, {"measurement": "pest or weed control at 125 g/ha", "setting": "[3]; 125 g ai/ha, visual injury rating after approximately 10 d, read-out: Barnyardgrass plant response rating (0 to 100 scale, 0 is no effect, 100 is complete control)", "result": 20, "unit": "%"}, {"measurement": "pest or weed control at 31 g/ha", "setting": "[3]; 31 g ai/ha, 0 to 100 scale (0 no effect, 100 complete control), read-out: Plant response rating, Barnyardgrass", "result": 0, "unit": "%"}, {"measurement": "pest or weed control at 31 g/ha", "setting": "[4]; 31 g ai/ha, 0 to 100 scale where 0 is no effect and 100 is complete control, read-out: Pigweed plant response rating", "result": 0, "unit": "%"}, {"measurement": "pest or weed control at 125 g/ha", "setting": "[4]; 125 g ai/ha, visual injury rating after approximately 10 d, read-out: Pigweed plant response rating (0 to 100 scale, 0 is no effect, 100 is complete control)", "result": 40, "unit": "%"}, {"measurement": "pest or weed control at 125 g/ha", "setting": "[5]; 125 g ai/ha, visual injury rating after approximately 10 d, read-out: Foxtail, Giant plant response rating (0 to 100 scale, 0 is no effect, 100 is complete control)", "result": 90, "unit": "%"}, {"measurement": "pest or weed control at 31 g/ha", "setting": "[5]; 31 g ai/ha, 0 to 100 scale (0 no effect, 100 complete control), read-out: Plant response rating, Foxtail, Giant", "result": 30, "unit": "%"}, {"measurement": "pest or weed control at 31 g/ha", "setting": "[6]; 31 g ai/ha, 0 to 100 scale where 0 is no effect and 100 is complete control, read-out: Ragweed plant response rating", "result": 0, "unit": "%"}, {"measurement": "pest or weed control at 125 g/ha", "setting": "[6]; 125 g ai/ha, visual injury rating after approximately 10 d, read-out: Ragweed plant response rating (0 to 100 scale, 0 is no effect, 100 is complete control)", "result": 0, "unit": "%"}, {"measurement": "plant injury at 125 g/ha", "setting": "[7]; 125 g ai/ha, postemergence, visual injury on 0 to 100 scale (0 no effect, 100 complete control), approx. 10 d, read-out: Wheat plant response rating", "result": 0, "unit": "%"}, {"measurement": "plant injury at 31 g/ha", "setting": "[7]; Postemergence, 31 g ai/ha, visual injury after approx. 10 d, 0 to 100 scale, 0 no effect, 100 complete control, read-out: Plant response rating, Wheat", "result": 0, "unit": "%"}, {"measurement": "plant injury at 125 g/ha", "setting": "[8]; 125 g ai/ha, postemergence, visual injury on 0 to 100 scale (0 no effect, 100 complete control), approx. 10 d, read-out: Corn plant response rating", "result": 0, "unit": "%"}, {"measurement": "Corn plant response rating (crop injury, 0 = no effect, 100 = complete kill) at 31 g/ha", "setting": "[8]; Postemergence, 31 g ai/ha, visual injury after approx. 10 d, 0 to 100 scale, 0 no effect, 100 complete control", "result": 0, "unit": "%"}, {"measurement": "pest or weed control at 125 g/ha", "setting": "[9]; 125 g ai/ha, postemergence, visual injury on 0 to 100 scale (0 no effect, 100 complete control), approx. 10 d, read-out: Kochia plant response rating", "result": 0, "unit": "%"}, {"measurement": "pest or weed control at 31 g/ha", "setting": "[9]; Postemergence, 31 g ai/ha, visual injury after approx. 10 d, 0 to 100 scale, 0 no effect, 100 complete control, read-out: Plant response rating, Kochia", "result": 0, "unit": "%"}, {"measurement": "pest or weed control at 125 g/ha", "setting": "[10]; 125 g ai/ha, postemergence, visual injury on 0 to 100 scale (0 no effect, 100 complete control), approx. 10 d, read-out: Ryegrass, Italian plant response rating", "result": 0, "unit": "%"}, {"measurement": "pest or weed control at 31 g/ha", "setting": "[10]; Postemergence, 31 g ai/ha, visual injury after approx. 10 d, 0 to 100 scale, 0 no effect, 100 complete control, read-out: Plant response rating, Ryegrass, Italian", "result": 0, "unit": "%"}, {"measurement": "pest or weed control at 125 g/ha", "setting": "[11]; 125 g ai/ha, postemergence, visual injury on 0 to 100 scale (0 no effect, 100 complete control), approx. 10 d, read-out: Barnyardgrass plant response rating", "result": 0, "unit": "%"}, {"measurement": "pest or weed control at 31 g/ha", "setting": "[11]; Postemergence, 31 g ai/ha, visual injury after approx. 10 d, 0 to 100 scale, 0 no effect, 100 complete control, read-out: Plant response rating, Barnyardgrass", "result": 0, "unit": "%"}, {"measurement": "pest or weed control at 125 g/ha", "setting": "[12]; 125 g ai/ha, postemergence, visual injury on 0 to 100 scale (0 no effect, 100 complete control), approx. 10 d, read-out: Pigweed plant response rating", "result": 0, "unit": "%"}, {"measurement": "pest or weed control at 31 g/ha", "setting": "[12]; Postemergence, 31 g ai/ha, visual injury after approx. 10 d, 0 to 100 scale, 0 no effect, 100 complete control, read-out: Plant response rating, Pigweed", "result": 0, "unit": "%"}, {"measurement": "pest or weed control at 125 g/ha", "setting": "[13]; 125 g ai/ha, postemergence, visual injury on 0 to 100 scale (0 no effect, 100 complete control), approx. 10 d, read-out: Blackgrass plant response rating", "result": 0, "unit": "%"}, {"measurement": "pest or weed control at 31 g/ha", "setting": "[13]; Postemergence, 31 g ai/ha, visual injury after approx. 10 d, 0 to 100 scale, 0 no effect, 100 complete control, read-out: Plant response rating, Blackgrass", "result": 0, "unit": "%"}, {"measurement": "pest or weed control at 125 g/ha", "setting": "[14]; 125 g ai/ha, postemergence, visual injury on 0 to 100 scale (0 no effect, 100 complete control), approx. 10 d, read-out: Foxtail, Giant plant response rating", "result": 0, "unit": "%"}, {"measurement": "pest or weed control at 31 g/ha", "setting": "[14]; Postemergence, 31 g ai/ha, visual injury after approx. 10 d, 0 to 100 scale, 0 no effect, 100 complete control, read-out: Plant response rating, Foxtail, Giant", "result": 0, "unit": "%"}, {"measurement": "pest or weed control at 125 g/ha", "setting": "[15]; 125 g ai/ha, postemergence, visual injury on 0 to 100 scale (0 no effect, 100 complete control), approx. 10 d, read-out: Galium plant response rating", "result": 50, "unit": "%"}, {"measurement": "pest or weed control at 31 g/ha", "setting": "[15]; Postemergence, 31 g ai/ha, visual injury after approx. 10 d, 0 to 100 scale, 0 no effect, 100 complete control, read-out: Plant response rating, Galium", "result": 30, "unit": "%"}, {"measurement": "pest or weed control at 125 g/ha", "setting": "[16]; 125 g ai/ha, postemergence, visual injury on 0 to 100 scale (0 no effect, 100 complete control), approx. 10 d, read-out: Ragweed plant response rating", "result": 0, "unit": "%"}, {"measurement": "pest or weed control at 31 g/ha", "setting": "[16]; Postemergence, 31 g ai/ha, visual injury after approx. 10 d, 0 to 100 scale, 0 no effect, 100 complete control, read-out: Plant response rating, Ragweed", "result": 0, "unit": "%"}, {"measurement": "pest or weed control at 250 g/ha", "setting": "[17]", "result": 0, "unit": "%"}, {"measurement": "pest or weed control at 250 g/ha", "setting": "[18]", "result": 75, "unit": "%"}, {"measurement": "pest or weed control at 250 g/ha", "setting": "[19]", "result": 0, "unit": "%"}, {"measurement": "pest or weed control at 250 g/ha", "setting": "[20]", "result": 0, "unit": "%"}]}
